Experiment [1] concerns the target T1, Ca^2+ uniporter (Homo sapiens, UniProt Q8NE86).
T1 construct: The effects of several intracellular Ca^2+ modulating agents (ICMAs) on permeabilized HepG2 cells were examined; endogenous in cells; host or cells: HepG2 (ATCC HB-8065), digitonin-permeabilized, in suspension
T1 sequence (Q8NE86 51-351): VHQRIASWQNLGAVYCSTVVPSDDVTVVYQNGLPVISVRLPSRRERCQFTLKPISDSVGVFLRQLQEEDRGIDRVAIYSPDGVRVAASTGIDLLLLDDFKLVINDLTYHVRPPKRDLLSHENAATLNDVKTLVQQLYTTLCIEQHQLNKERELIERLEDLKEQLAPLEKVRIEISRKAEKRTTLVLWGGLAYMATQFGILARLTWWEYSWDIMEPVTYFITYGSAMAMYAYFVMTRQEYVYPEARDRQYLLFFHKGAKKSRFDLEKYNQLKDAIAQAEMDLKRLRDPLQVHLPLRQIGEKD
T1 sequence (Q9H4I9 48-107 partner limits assumed): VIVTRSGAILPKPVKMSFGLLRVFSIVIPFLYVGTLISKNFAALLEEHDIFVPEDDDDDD
The experiment can be described thus: Ca^2+ uniporter assay, digitonin-permeabilized suspended HepG2 cells, Calcium-Green-5N on FLIPR, ICMA added between two Ca^2+ pulses. Conditions: 5 micrograms/milliliter oligomycin, 2 micromolar rotenone, 1 micromolar FCCP; for mitochondrial uptake of the second Ca^2+ pulse: second Ca^2+ pulse at about t=6 min, 1 micromolar RU360. It counts as cell-based.
Experimental: A master mix solution (MM Solution) was prepared by the addition of glutamate and malate to final concentrations of 5 millimolar each, MgCl2 to a final concentration of 1 millimolar, EGTA to a final concentrations of 0 to 8 micromolar, and Calcium-Green-5N to a final concentration of 0.1 to 1.0 micromolar, to a basic KCl-based respiratory media (“BReM”) that is described in Table 3. […] The hexapotassiun salt Calcium-Green-5N (Molecular Probes, Eugene, Oreg.) in the MM Solution is a fluorescent dye that has low binding affinity to Ca^2+.
Thapsigargin (Calbiochem, San Diego, Calif.), a Ca^2+ uptake inhibitor of the endoplasmic reticulum (ER), was added to the MM Solution to a final concentration of 1 micromolar to yield a solution designated “MM-T” (i.e., Master Mix with Thapsigargin).
The cell membrane permeabilizing agent digitonin (Sigma, St. Louis, Mo.) was added to MM-T to a final concentration of from about 0.007% to about 0.03% to yield a solution referred to as “MM-TD” (i.e., Master Mix with Thapsigargin and digitonin. CaCl2 was added to MM-T to provide a solution with a determined final concentration of Ca^2+ for the determination of intracellular Ca^2+ flux.
The effects of several intracellular Ca^2+ modulating agents (ICMAs) on permeabilized HepG2 cells were examined as follows. The mitochondrial respiratory inhibitors oligomycin (Calbiochem, San Diego, Calif.) and rotenone (Calbiochem) were added to MM-T to final concentrations of 50 micrograms/milliliter and 20 micromolar, respectively. The uncoupler FCCP was similarly added to MM-T to a 10× concentration (10 micromolar) to yield a stock solution of FCCP, MM-TF (i.e., Master Mix with Thapsigargin and FCCP). The ICMA Ru360, which blocks Ca^2+ uptake into the mitochondria by the calcium uniporter, was added to MM-T to a concentration of 100 micromolar to yield MM-T360 (i.e., Master Mix with Thapsigragin and Ru360). CaCl2 was added to MM-T to yield a 10× solution of CaCl2 (120 micromolar) in MM-T.
HepG2 cells were cultured in Eagle's minimal essential medium (MEM) with non-essential amino acids, sodium pyruvate and Earle's balanced salt solution (BSS), 90%; fetal bovine serum (FBS), 10%. Cells were centrifuged (500×g) and the growth media was aspirated from the pellet. The HepG2 cells were resuspended in MM-TD at a concentration of 1×10^7 cells/milliliter, and 100 microliters of the resuspended permeabilized cells were dispensed into wells of a 96-well Costar 3603 microplate. The plate was placed into a FLIPR™ prewarmed to 37° C. MM-T, 120 micromolar Ca^2+, was dispensed into the cell-containing wells at a volume of 11.1 microliters, yielding a final assay concentration of 12 micromolar Ca^2+. The addition of Ca^2+ at this stage of the assay is referred to as the first calcium pulse and the time at which Ca^2+ is added is designated t=0.
After about three minutes (i.e., at about t=3 min.), 12.3 microliters of one of the ICMA solutions were dispensed into wells containing permeabilized cells to yield final assay concentrations of 5 micrograms/milliliter oligomycin, 2 micromolar rotenone, 1 micromolar FCCP, 1 micromolar RU360, and MM-T (no ICMA).
Cells were exposed to a second calcium pulse by the addition of 13.7 microliters of MM-T, 120 micromolar Ca^2+, to the cells after an additional 3 minutes (i.e., at about t=6 min.).

The target in experiment [2] is T1, Ca^2+ uniporter. Description: High-throughput uniporter assay of different compounds, permeabilized HepG2 cells with and without thapsigargin, FLIPR II. It counts as cell-based.
Text: The high-throughput uniporter assay protocol, carried out as described above for suspension cells, was used to determine the effect of different compounds on mitochondria and extramitochondrial Ca^2+ concentrations in the presence or absence of the Ca^2+ uptake inhibitor of the endoplasmic reticulum, thapsigargin (Calbiochem). Agents examined in this assay include calcium channel inhibitors, pro- and anti-oxidants, mitochondrial inhibitors and uncouplers, and the Ca—UP inhibitor Ru360. On the day of the assay, solutions of the respiratory/cell permeabilizing media containing digitonin with thapsigarin (MM-TD) and without thapsigarin (MM-D) were prepared as previously described. Calcium chloride was added to each to a final concentration of 6 micromolar Ca^2+, resulting in MM-TD, 6 uM Ca and MM-D, 6 uM Ca. A MM solution was prepared with a 10× Ca^2+ concentration of 200 micromolar for the second Ca^2+ pulse. The Ca^2+-uniporter inhibitor Ru360 was prepared at a 10× concentration of 100 microliters in MM. Ten times (10×) stock solutions of the other agents were prepared for the assay by the addition of the compounds to final concentrations of 10 micromolar into MM. […] Controls include water and 10% DMSO (Sigma) in MM.
Cells of the HepG2 cell line (hepatocellular carcinoma, ATCC HB-8065) were trypsinized from near-confluent flasks in growth media (Eagle's MEM with non-essential amino acids, sodium pyruvate and Earle's BSS, 90%; FBS 10%). Cells were centrifuged, growth media was aspirated, and cells were resuspended to a concentration of 1×10^7 cells per milliliter in MM-TD, 6 uM Ca, or MM-D, 6 uM Ca. One hundred (100) microliters of the cell suspension (about 1×10^6 cells) were delivered to wells of a microtiter plate. The plate was placed in a FLIPR™ II (used in 96-well format) warmed to 37° C. An 11.1 microliter aliquot of the 10× stock solutions with water or DMSO (controls), Ru360 (Ca—UP inhibitor), or the test compounds, were dispensed into designated wells such that the assay concentration of DMSO is 0.1%, Ru360 is 10 micromolar, and each of the test compounds are at 1 micromolar concentrations. After an additional three minutes, a second addition of 12.3 microliters of the 10× CaCl2 (200 micromolar Ca^2+), was dispensed into the wells of the microtiter plate resulting in assay concentrations of 20 micromolar Ca^2 (Extramitochondrial Ca^2+ bound to the calcium indicator dye was monitored throughout and profiles of each assay; the results are presented in FIG. 12, with all thapsigargin minus (thaps−) assays in wells corresponding to columns 1-6 and thapsigargin plus (thaps+) assays in wells corresponding to columns 7-12.
Experiment [3] deals with mitochondria permeability transition (MPT). The experiment can be described thus: MPT modulation assay, digitonin-permeabilized MixCon cells, Ca-Green-5N, cuvette spectrofluorimeter. It counts as cell-based.
Experimental: An assay was performed in order to observe the transition induction effect on MPT by the MPT effector, diamide (a thiol oxidizing agent and pro-oxidant). The assay was performed in a digitonin-permeabilized cell line of mixed cybrids, MixCon in the presence of Ca^2+ and Ca-Green-5N and monitored in an LS50B Perkin Elmer Spectrofluorimeter, but is adaptable to the FLIPR system. Initially, ethacrynic acid was added to the MixCon cells in Dulbecco's modified Eagle's medium and 10% FBS, to a final concentration of 100 micromolar and preincubated for 5 minutes to remove the ability of cells to deal with oxidative stress making cells susceptible to the pro-oxidant. The cells were then centrifuged, growth media was aspirated, and cells resuspended, at 1.1×10^7 cells/milliliter, in 2 milliliters of respiratory media containing digitonin (MM-D) whereupon the digitonin (dig) permeabilizes the cells. The suspension was then transferred to a spectrofluorimetric cuvette. The cuvette was placed in the fluorimeter and 0.3 microliters of a 254 millimolar CaCl2 stock was added to the cuvette (final CaCl2 concentration of 40 micromolar). After approximately three minutes diamide was added to the cuvette to a final concentration of 500 micromolar].
The test system is the same in experiment [4]. The experiment can be described thus: MPT modulation assay, digitonin-permeabilized 293T cells, cuvette spectrofluorimeter. It counts as cell-based, human.
Experimental: The transition induction effect on MPT by the MPT effector, diamide (a thiol oxidizing agent and pro-oxidant) were performed with a second cell line, 293T. The 293T cells were suspended in 2 milliliters of growth media, DMEN and 10% FBS, with 100 micromolar of ethacrynic acid (1×10^7 cells/ml) and preincubated for 14 minutes to remove ability of cells to deal with oxidative stress making them susceptible to the pro-oxidant. The cells were centrifuged, media aspirated, resuspended in 2 milliliters of respiratory media containing digitonin (MM-D), and transferred into a cuvette. The digitonin (dig) in MM-TD permeabilizes the cells. The cuvette was placed in a LS50B Perkin Elmer Spectrofluorimeter and 40 micromolar CaCl2 in H2O was added into the suspension. After approximately three minutes 500 micromolar diamide was dispensed into the cuvette.
Experiment [5] shares this test system. The experiment can be described thus: High-throughput MPT modulation assay, permeabilized HepG2 cells with and without thapsigargin, FLIPR 384. Conditions: compounds 1 micromolar. It counts as cell-based, human.
Experimental: HepG2 cells (hepatocellular carcinoma, ATCC HB-8065), in suspension, were used to determine the effect of these compounds on mitochondria Ca^2+ sequestration by monitoring extramitochondrial Ca^2+ concentrations in the presence or absence of the Ca^2+ uptake inhibitor of the endoplasmic reticulum, thapsigargin (Calbiochem, San Diego, Calif.). On the day of the assay solutions of the respiratory media containing digitonin with thapsigarin (MM-TD) and without thapsigarin (MM-D) were prepared as previously described. Calcium chloride was added to each to a final concentration of 6 micromolar Ca^2+, to yield MM-TD, 6 uM Ca, and MM-D, 6 uM Ca. Ten times (10×) stock solutions were prepared for the assay by the addition of each of the compounds to final concentrations of 10 micromolar in MM. Ten times (10×) solutions of CaCl2 was prepared in MM or MM-T to concentrations of 200 micromolar, for the second addition.
The HepG2 cells were trypsinized from near-confluent flasks in growth media (Eagle's MEM with non-essential amino acids, sodium pyruvate and Earle's BSS, 90%; FBS 10%). Cells were centrifuged, media was aspirated, and the cells were resuspended to 1×10^7 cells per milliliter in MM-TD, 6 uM Ca and MM-D, 6 uM Ca, whereby Ca^2+ and the indicator dye enter the cells and Ca^2+ becomes sequestered in mitochondria. One hundred (100) microliters of the cell suspension was delivered to each well of a microtiter plate. The plate was placed in the FLIPR 384 warmed to 37° C. An 11.1 microliter volume of the 10× stock solutions with the test compounds were dispensed into designated wells such that the assay concentration are 1 micromolar. After a three minute interval, a Ca^2+ pulse of 20 micromolar was delivered by adding 12.3 microliters of the 10× CaCl2 solutions containing 200 micromolar Ca^2+.
Experiment [6] has as its system Ca^2+ uniporter.
Experimental: On the day of the assay a master mix solution (MM) was prepared by the addition of glutamate and malate from the stock solutions to final concentrations of 5 millimolar each, 1 millimolar MgCl2, and 0.5 micromolar Calcium-Green-5N (Molecular Probes, Eugene, Oreg.). The hexapotassium salt Calcium-Green-5N (Molecular Probes, Eugene, Oreg.) in the MM is a fluorescent dye that has low binding affinity to Ca^2+. The cell membrane permeabilizing agent digitonin (Sigma, St. Louis, Mo.) was added to MM to a final concentration of 0.007% to yield a solution designated MM-D. To this mixture CaCl2 was added to a final concentration of 6 micromolar Ca^2+ to yield a solution designated MM-D, 6 uM Ca. A 10× Ca^2+ stock solution was prepared by addition of CaCl2 to a final concentration of 200 micromolar in MM (no digitonin), and 10× solutions of FCCP were also prepared in MM to give concentrations of 0, 0.2, 0.4, 0.6, 0.8, 1.0, 2.0, 5.0, and 10.0 micromolar.
HepG2 cells (human hepatocellular carcinoma, ATCC HB-8065) were trypsinized from near-confluent flasks in growth media, Eagle's minimum essential medium (MEM) with non-essential amino acids, sodium pyruvate and Earle's balanced salt solution (BSS), 90%; FBS 10%. Cells were centrifuged, growth media aspirated, and resuspended in the permeabilizing solution MM-D, 6 uM CaCl2. The concentration of cells was adjusted to 1×10^7 cells per milliliter in solution. One hundred (100) microliters of the cell suspension (1×10^6 cells) were delivered to the 96 well microtiter plate. […]
A pulse of 12.3 microliters of the 10× stock CaCl2 solution was introduced into each of the wells of the microtiter plates after about four minutes. Emissions resulting from the binding of extramitochondrial Ca^2+ to the calcium indicator dye were monitored throughout the assay. […]
The average of the changes of fluorescence for the assays (1-12) versus time course where FCCP was added at one minute, and calcium was pulsed into the assay media at approximately 4 minutes, were determined and graphed as a function of time (FIG. 11).

Bounds are passed on as bounds.

Take Ru360: at Ca^2+ uniporter [1], the “mitochondrial uptake of the second Ca^2+ pulse” value is listed as “prevented the uptake of Ca^2+ by the Ca Uniporter”. For the same compound, the “uniporter activity profile after the 20 micromolar Ca^2+ pulse” value (“uniporter activity profile” for short) at Ca^2+ uniporter [2] (Ru360 10 micromolar) was “no uptake of Ca^2+ by the uniporter”.

Take `CN1CCN(CCCN2c3ccccc3Sc3ccc(C(F)(F)F)cc32)CC1` [trifluoroperazine]: the “uniporter activity profile” value on Ca^2+ uniporter [2] (test compounds 1 micromolar) was “do not possess uniporter inhibitory activity”.

Consider `CN(C)C(=O)/N=N/C(=O)N(C)C` [diamide, azodicarboxylic acid bis[dimethylamide]], for which the “uniporter activity profile” value at Ca^2+ uniporter [2] (test compounds 1 micromolar) was “uniporter non-inhibitory profile”. For the same compound, the “fluorescence upon addition of diamide in the presence of CsA” value in experiment [3] (diamide 500 micromolar with 10 micromolar CsA) is given as “only a slight increase in fluorescence”. The “time until mitochondria released the sequestered Ca^2+ after diamide addition” value in experiment [3] (diamide 500 micromolar, cells preincubated with 100 micromolar ethacrynic acid, 40 micromolar CaCl2) was no more than 6 min. Moreover, the “time after which the rate of Ca^2+ release substantially increased” value in experiment [4] (diamide 500 micromolar) is listed as “about 7.5 minutes”. In addition, in experiment [4] (diamide 500 micromolar, ethacrynic acid 100 micromolar preincubation 14 minutes, 40 micromolar CaCl2), the “Ca^2+ release from mitochondria after diamide addition” value is “immediately began to slowly release Ca^2+ to the medium”. Further, in experiment [5], the “assay profile after the 20 micromolar Ca^2+ pulse” value (from here on “assay profile”) was “sequestering of Ca^2+ by mitochondria after the Ca^2+ pulse”.

Take `N#CC(C#N)=NNc1cccc(Cl)c1` [CCCP, carbonyl cyanide m-chlorophenyl-hydrazone]: on Ca^2+ uniporter [2] (test compounds 1 micromolar), the “fluorescence signal over the 3 minutes after compound addition (retention of the accumulated 6 micromolar Ca^2+)” value (from here on “fluorescence signal over the 3 minutes”) is given as “release Ca^2+ from mitochondria”; the “uniporter activity profile” value is “prevent Ca^2+ uptake and retention by the mitochondria”.

As to `CCC(C)N(C)C(=O)c1cc2ccccc2c(-c2ccccc2Cl)n1` (stereo not shown) [PK-11195], on Ca^2+ uniporter [2] (test compounds 1 micromolar), the “uniporter activity profile” value was “uniporter non-inhibitory profile”.

With `C=C1[C@@H]2CC[C@H]3[C@]4(C)C[C@H](O[C@@H]5O[C@H](CO)[C@@H](OS(=O)(=O)O)[C@H](OS(=O)(=O)O)[C@H]5OC(=O)CC(C)C)C[C@@H](C(=O)O)[C@H]4CC[C@]3(C2)[C@H]1O` [atractyloside], the “fluorescence signal over the 3 minutes” value at Ca^2+ uniporter [2] (test compounds 1 micromolar) is recorded as “slight indication of Ca^2+ release”. For the same compound, in experiment [5], the “assay profile” value was “initial uptake of Ca^2+ into mitochondria with the slow release of the Ca^2+ into the cytosol”.

In the case of `COc1ccc(Cl)cc1C(=O)NCCc1ccc(S(=O)(=O)NC(=O)NC2CCCCC2)cc1` [glyburide], the “uniporter activity profile” value at Ca^2+ uniporter [2] (test compounds 1 micromolar) is “uniporter non-inhibitory profile”.

As to `CC(=O)N[C@@H](CS)C(=O)O` [N-acetylcysteine], on Ca^2+ uniporter [2] (test compounds 1 micromolar), the “uniporter activity profile” value is “uniporter non-inhibitory profile”.

Turning to `O=C1CN(/N=C/c2ccc(-c3ccc([N+](=O)[O-])cc3)o2)C(O)=N1` [dantrolene], the “uniporter activity profile” value on Ca^2+ uniporter [2] (test compounds 1 micromolar) is recorded as “uniporter non-inhibitory profile”.

As to `COc1ccc([C@@H]2Sc3ccccc3N(CCN(C)C)C(=O)[C@@H]2OC(C)=O)cc1` [diltiazem], on Ca^2+ uniporter [2] (test compounds 1 micromolar), the “uniporter activity profile” value is on record as “do not possess uniporter inhibitory activity”.

As to `C[C@H](CCC(=O)O)C[C@H](C)C[C@H](C)C(=O)/C=C(\O)[C@H](C)C[C@H](C)C/C=C/[C@@H](C)[C@@H](O)[C@@H](C)[C@@H](O)C[C@@H]1CC[C@@](C)([C@H]2CC[C@@](C)([C@@H](C)O)O2)O1` [ionomycin], at Ca^2+ uniporter [2] (test compounds 1 micromolar), the “fluorescence signal over the 3 minutes” value is “release Ca^2+ from cell stores”; the “uniporter activity profile” value is “prevent Ca^2+ uptake and retention by the mitochondria”.

Turning to `N=C(N)NC(=O)c1nc(Cl)c(N)nc1N` [amiloride], the “uniporter activity profile” value at Ca^2+ uniporter [2] (test compounds 1 micromolar) is “do not possess uniporter inhibitory activity”.

`CN(CC(=O)O)C(=N)N` [creatine]: on Ca^2+ uniporter [2] (test compounds 1 micromolar), the “uniporter activity profile” value is on record as “uniporter non-inhibitory profile”.

Take `N#CC(C#N)=NNc1ccc(OC(F)(F)F)cc1` [FCCP, carbonyl cyanide p-(trifluoromethoxy)phenyl-hydrazone]: the “release of sequestered Ca^2+ from mitochondria after addition of the agent” value on Ca^2+ uniporter [1] (added about 3 min after first 12 micromolar Ca^2+ pulse, thapsigargin present) is “caused the release of Ca^2+ from mitochondria into the cytosol”. The “mitochondrial uptake of the second Ca^2+ pulse” value at Ca^2+ uniporter [1] was “could not sequester the added Ca^2+”. The “further Ca^2+ release on addition of uncoupler after diamide” value is listed as “no further release of Ca^2+ from the mitochondria” in experiment [3] (FCCP 0.1 micromolar after 500 micromolar diamide, no CsA) and “no increased level of fluorescence” in experiment [4] (FCCP 0.1 micromolar after 500 micromolar diamide). Further, the “Ca^2+ release on addition of uncoupler in the presence of CsA and diamide” value in experiment [3] (FCCP after diamide with 10 micromolar CsA) is on record as “Ca^2+ released from the mitochondria”. For the same compound, in the experiment with Ca^2+ uniporter [6] (0.02 or 0.04 uM FCCP, FCCP at 1 min, Ca^2+ pulse at about 4 min, FIG. 10), the “effect on CaUP activity at the lowest concentrations” value is recorded as “difficult to distinguish from the results obtained when no FCCP was present”. Moreover, the “fluorescence upon addition of the agent, before the Ca^2+ pulse” value in the experiment with Ca^2+ uniporter [6] (FCCP added at t=1 min to cells loaded with 6 micromolar Ca^2+, FIG. 11) is listed as “fluorescence rises slightly”. In addition, the “effect of the uncoupler on CaUP activity with decreasing concentration” value in the experiment on Ca^2+ uniporter [6] (FCCP from 1.0 uM to 0.02 uM, FIG. 10) is given as “decreases in a corresponding manner”.

On to `CO[C@H](C/C=C\C=C\CC/C=C/C[C@H](C)/C=C/C(=C\C(=O)O)CC(=O)O)/C(C)=C\C=C(/C)C(=O)O` [bongkrekic acid], for which the “assay profile” value in experiment [5] is “normal mitochondria sequestration of Ca^2+”.

These data come from patent publication US6808873B2, “Screening assays using intramitochondrial calcium” (MitoKor, Inc., priority 2000, dated 2004).
